From patent publication EP4332093A1, “SALT CONTAINING PIPERAZINE POLYCYCLIC DERIVATIVE, CRYSTAL FORM THEREOF, PREPARATION METHOD THEREFOR, AND USE THEREOF” (Shanghai Hansoh Biomedical Co., Ltd., priority 2021, dated 2022) come the findings set out here.

Read-outs that look alike come from different tables or passages of the source.

The nature of series [1]: Solid stability experiment of crystal forms of salt (5 and 10 days). Type of series: physicochemical. Here is the method:
About 1 mg of different crystal forms of salt were taken and placed under the conditions of light 5000lx, high temperature 60°C, high humidity 92.5%RH, high temperature and high humidity 50°C 75%RH for 5 days and 10 days. The salt content was determined by HPLC and external standard method, and the change of relevant substances was calculated by chromatographic peak area normalization method.

The next series addresses 5-HT2A receptor (Homo sapiens, UniProt P28223). The series can be described thus: Calcium ion mobility in cells stably expressing 5-HT2A receptors (Flp-In-CHO-5HT2A, FLIPR). Type of series: cell-based. The following applies: Flp-In-CHO-5HT2A stable pool, 5HT stimulation. Further details: expressed in transfected cells. Here is the method: Determination of the effect of the compounds of the present invention on calcium ion mobility in cells stably expressing 5-HT2A receptors
To determine the inhibitory effect of the compounds on 5-HT2A receptor.
• 1) Preparation of the buffer: 1 x HBSS, 20 mM HEPES, 2.5 mM probenecid (probenecid was 400 mM stock in 1 M NaOH), 0.1% BSA. Probenecid and BSA were added fresh on the day of the experiment. Experimental buffers include dye buffer and compound dilution buffer. • 2) Cell culture medium: Ham's F-12K + 10% fetal bovine serum + 600 µg/ml hygromycin B + 1* penicillin-streptomycin. Seeding medium: Ham's F-12K + 10% dialysis serum; Assay buffer: 1 x HBSS + 20 mM HEPES; Cell line: Flp-In-CHO-5HT2A stable pool. • 3) The cells were cultured in the complete medium at 37°C, 5% CO2 to 70%-90% confluency. The cells were digested with TrypLE, seeded to the 384-well assay plate at a density of 1 × 10^4 cells/well, and incubated for 16 to 24 hours (at least overnight). • 4) 20X Component A was thawed to room temperature, diluted to 2X working concentration (containing 5mM Probenecid) with the assay buffer, and placed at room temperature for later use. • 5) The cell culture plate was taken out and left to stand at room temperature for 10 min. […] 10 µl of diluted 5HT was add to each experimental well using FLIPR Tetra, and the values were read.
The calcium signal values were determined by FLIPR. The calculated output for each sampling time point in the experiment was the ratio of the 340/510 nm wavelength signals to 380/510 nm wavelength signals. The maximum minus minimum calculation was derived from the ratio signal curve. The percent inhibition rate and ten-point concentration data were fitted to the parametric nonlinear logistic equation by using GraphPad prism to calculate the IC50 values of the compound.

Another series addresses T1, D3 receptor (Homo sapiens, UniProt P35462).
T1 construct: expressed in transfected cells
The series can be described thus: cAMP content in cells stably expressing D3 receptors (CHO-D3, forskolin, HTRF). The class given is cell-based. Here is the method:
Determination of the effect of the compounds of the present invention on cAMP content in cells stably expressing D3 receptors
To determine the activation effect of the compounds on D3 receptor.
• 1. Preparation of the buffer: 1* HBSS + 20mM HEPES + 0.1% BSA + 500 µM IBMX. Complete medium: Ham's F12K + 10% fetal bovine serum +1* penicillin-streptomycin + 400 µg/mL G418. • 2. CHO-D3 cells were cultured in the complete medium at 37°C, 5% CO2. After TrypLE digestion, the cells were resuspended in the experimental buffer, and seeded into a 384-well cell culture plate at a seeding density of 8000 cells per well. • 3. The experimental buffer (1*HBSS, 0.1% BSA, 20 mM HEPES and 500 µM IBMX) was prepared. The compound was diluted with the buffer. 2.5 µL of the compound solution was added to each well, and the plate was incubated at 37°C for 10 minutes. The forskolin was diluted to 8 µM (8*) with the experimental buffer. 2.5 µL of the diluted 8* forskolin was added, and the plate was incubated at 37°C for 30 minutes. cAMP-d2 and Anti-cAMP-Eu^3+ were thawed, and diluted by 20-fold with the lysis buffer. 10 µL of cAMP-d2 was added to the experimental well, followed by the addition of 10 µL of Anti-cAMP-Eu^3+. The reaction plate was centrifuged at 200 g for 30 s at room temperature, and left to stand at 25°C for 1 h. Data was collected using Envision.
For orientation: In TR-FRET formats the signal depends on donor and acceptor labels being close together.

The nature of series [2]: Pharmacokinetic assay in Balb/c mice (plasma and brain tissue). The settings on record: male, mouse, po, p.o. 5 mg/kg; for AUC(0-t): read-out: Area under curve AUC0-t; for Tmax: read-out: Peak time tmax; for Cmax: read-out: Plasma concentration Cmax; for AUC(0-inf): read-out: Area under curve AUC0-∞; for MRT: read-out: Average residence time MRT; for half-life: read-out: Half life t1/2 (converted). The class given is in vivo. Here is the method: Balb/c mice were used as test animals. The pharmacokinetic behavior in mouse body (plasma and brain tissue) of the compounds of Examples of the present invention was studied at an oral administration dose of 5 mg/kg.
Compounds of the Examples of the present invention, prepared by the applicant.
Male Balb/c mice (12 mice per group), purchased from Shanghai Jiesijie Laboratory Animal Co., LTD, with Certificate No.: SCXK (Shanghai) 2013-0006 N0.311620400001794.
The test compound was dissolved in 0.5% CMC-Na (1% Tween80) by sonication to formulate a clear solution or homogeneous suspension.
After an overnight fast, male Balb/c mice (12 mice per group) were administered p.o. with the test compound at an administration dose of 5 mg/kg and an administration volume of 10 mL/kg.
0.2 mL of blood was taken from the heart of the mouse before administration and at 1, 2, 4, 8 and 24 hours after administration, and the mice were sacrificed with CO2. The samples were stored in EDTA-K2 tubes, and centrifuged for 6 minutes at 4°C, 6000 rpm to separate the plasma. The plasma samples were stored at -80°C. Whole brain tissue was taken out, weighed, placed in a 2 mL centrifuge tube, and stored at -80°C.
• 1) 160 µL of acetonitrile was added to 40 µL of the plasma sample for precipitation, and then the mixture was centrifuged for 5 to 20 minutes at 3500 × g. • 2) 90 µL of acetonitrile containing internal standard (100 ng/mL) was added to 30 µL of the plasma and brain homogenate sample for precipitation, and then the mixture was centrifuged for 8 minutes at 13000 rpm. • 3) 70 µL of water was added to 70 µL of the treated supernatant and mixed by vortex for 10 minutes. 20 µL of the supernatant was taken to analyze the concentration of the test compound by LC/MS/MS. LC/MS/MS analytical instrument: AB Sciex API 4000 Qtrap.
• Liquid chromatography condition: Shimadzu LC-20AD pump • Chromatographic column: Agilent ZORBAX XDB-C18 (50×2.1 mm, 3.5 µm); Mobile phase: Eluent A was 0.1% formic acid in water, and Eluent B was acetonitrile • Flow rate: 0.4 mL/min • Elution time: 0-4.0 minutes, the eluent is as follows:
The main parameters of pharmacokinetics were calculated by WinNonlin 6.1. Table 17: Experimental results of pharmacokinetic assay in mice

Setting [3] is: High humidity (92.5% RH), 5 Days.
[4] abbreviates: High humidity (92.5% RH), 10 Days.
Setting [5] is: High temperature (60°C), 5 Days.
The mark [6] stands for this setting: High temperature (60°C), 10 Days.
[7] abbreviates: High temperature and high humidity (50°C 75%RH), 5 Days.
The mark [8] stands for this setting: High temperature and high humidity (50°C 75%RH), 10 Days.

5-HT2A receptor, sequence (P28223 whole entry): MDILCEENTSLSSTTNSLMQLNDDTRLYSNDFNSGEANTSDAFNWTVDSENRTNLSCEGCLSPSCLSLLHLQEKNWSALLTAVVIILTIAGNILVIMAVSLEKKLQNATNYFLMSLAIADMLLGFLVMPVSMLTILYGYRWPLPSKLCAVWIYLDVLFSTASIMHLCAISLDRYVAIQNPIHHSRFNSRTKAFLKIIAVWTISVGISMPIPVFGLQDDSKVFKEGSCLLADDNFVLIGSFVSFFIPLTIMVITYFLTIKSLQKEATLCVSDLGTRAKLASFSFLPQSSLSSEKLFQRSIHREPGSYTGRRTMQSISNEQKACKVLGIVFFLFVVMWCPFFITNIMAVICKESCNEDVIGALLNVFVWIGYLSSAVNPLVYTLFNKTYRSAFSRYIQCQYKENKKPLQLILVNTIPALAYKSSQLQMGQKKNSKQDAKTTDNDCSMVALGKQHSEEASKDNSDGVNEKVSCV
T1 sequence (P35462 whole entry): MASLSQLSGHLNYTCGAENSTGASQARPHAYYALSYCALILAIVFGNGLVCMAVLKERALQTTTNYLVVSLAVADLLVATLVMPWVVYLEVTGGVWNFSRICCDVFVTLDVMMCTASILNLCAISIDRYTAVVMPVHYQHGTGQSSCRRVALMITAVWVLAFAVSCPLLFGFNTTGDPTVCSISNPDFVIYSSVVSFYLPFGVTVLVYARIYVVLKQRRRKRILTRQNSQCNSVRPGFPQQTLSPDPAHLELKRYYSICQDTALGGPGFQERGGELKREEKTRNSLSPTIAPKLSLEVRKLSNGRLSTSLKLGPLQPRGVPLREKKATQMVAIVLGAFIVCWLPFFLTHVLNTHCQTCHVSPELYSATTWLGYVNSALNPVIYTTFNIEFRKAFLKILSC

`O=C(N[C@H]1C[C@H](CCN2CCN(c3cccc(Cl)c3Cl)CC2)C1)c1ncco1` [Crystal form A of hydrochl oride]: the “Maximum single impurity increase%” value in series [1] (setting [3]) is given as 0.06%; in series [1] (setting [4]) it was less than 0.02%; in series [1] (setting [5]) it was less than 0.02%; in series [1] (setting [6]), less than 0.02%; in series [1] (setting [7]), less than 0.02%; in series [1] (setting [8]) it was less than 0.02%. Moreover, the “Maximum single impurity increase%” value was less than 0.02% in series [1] (Light (5000lx), 5 Days) and less than 0.02% in series [1] (Light (5000lx), 10 Days). For the same compound, the Total impurity increase% is given as 0.06% in series [1] (setting [3]); less than 0.02% in series [1] (setting [4]); less than 0.02% in series [1] (setting [5]); 0.03% in series [1] (setting [6]); less than 0.02% in series [1] (setting [7]); less than 0.02% in series [1] (setting [8]). Also, the Total impurity increase% in series [1] (Light (5000lx), 5 Days) is less than 0.02%; in series [1] (Light (5000lx), 10 Days), less than 0.02%.
For `O=C(N[C@H]1C[C@H](CCN2CCN(c3cccc(Cl)c3Cl)CC2)C1)c1ncco1` [Crystal form B of p-toluene sulfonate], the “Maximum single impurity increase%” value in series [1] (setting [3]) was less than 0.02%; in series [1] (Light (5000lx), 5 Days) it was 0.13%; in series [1] (Light (5000lx), 10 Days) it was 0.13%. Moreover, the Total impurity increase% in series [1] (setting [3]) is less than 0.02%; in series [1] (setting [6]), less than 0.02%; in series [1] (Light (5000lx), 5 Days) it was 0.03%; in series [1] (Light (5000lx), 10 Days), 0.19%.
For the compound `O=C(NC1CC(CCN2CCN(c3cccc(Cl)c3Cl)CC2)C1)C1(O)CC1` (centres unmarked) [Example 6, N-(3-(2-(4-(2,3-Dichlorophenyl)piperazin-1-yl)ethyl)cyclobutyl)-1-hydroxycyclopro pane-1-carboxamide], at 5-HT2A receptor, the half-maximal inhibitory concentration (IC50) was found to be 13.1 nM. Moreover, the EC50 at D3 receptor came out at 2.9 nM. Moreover, in series [2] (Brain), the AUC(0-t) was 1970 ng·h/mL, the Tmax came out at 60 min and the Cmax came out at 464 ng/mL. Also, in series [2] (Plasma), the AUC(0-t) stood at 2330 ng·h/mL, the AUC(0-inf) is 2460 ng·h/mL, the MRT came out at 2.8 h and the half-life was 114 min. In series [2] (Plasma), the Tmax worked out at 30 min and the Cmax stood at 865 ng/mL.
As for `O=C(NC1CC(CCN2CCN(c3cccc(Cl)c3Cl)CC2)C1)c1nccs1` (centres unmarked) [Example 7, N-(3-(2-(4-(2,3-Dichlorophenyl)piperazin-1-yl)ethyl)cyclobutyl)thiazole-2-carboxamide], on 5-HT2A receptor, the IC50 worked out at 6.44 nM. At D3 receptor, this compound displayed an EC50 of 2.8 nM. In series [2] (Brain), the AUC(0-t) is 2080 ng·h/mL, the time of peak concentration (Tmax) was 60 min and the Cmax was determined as 569 ng/mL. In series [2] (Plasma), the AUC(0-t) came to 503 ng·h/mL, the AUC(0-inf) is 541 ng·h/mL, the MRT is 2.8 h and the half-life was 126 min. Further, in series [2] (Plasma), the Tmax is 30 min and the Cmax is 254 ng/mL.
With `O=C(N[C@H]1C[C@H](CCN2CCN(c3cccc(Cl)c3Cl)CC2)C1)c1ncco1` [crystal form B of p-toluenesulfonate], the “crystal form stability (single impurity)” value in series [1] (light conditions (5000lx)) is reported as “single impurity increases significantly”. For the same compound, the crystal form stability result in series [1] (other conditions (60°C, 92.5% RH, 50°C 75% RH)) is given as “stable”.

By IC50 is commonly meant the concentration needed to halve the response being measured. For orientation: EC50 means the concentration that produces a half-maximal response. The Tmax is the time at which the peak concentration occurs. One may read the MRT as a mean duration of stay, worked out from the concentration-time curve.
